Literature values, collected in patent publication US20220152053A1, “METHODS AND COMPOSITIONS FOR TREATING VARIOUS DISORDERS” (Amylyx Pharmaceuticals, Inc., priority 2019, published 2022).
Like-named read-outs stand apart in the source and are kept apart here. Blank lines part the entries; values can stand above or below the compound they belong to.

Key:
subjects = details: prior human experience
Sprague-Dawley rats = details: oral, 50, 250, and 1000 mg/kg/day, 2 years, males and females
liver enzyme levels = details: in vivo
CD-1 mice = details: oral, 50, 250, and 1000 mg/kg/day, 2 years
cancer subjects = details: intravenous, 250-300 mg/kg/day for 14 days, repeated at 4-week intervals
[1] = tested on: subjects with urea cycle disorders; details: for Other (rare) adverse events, frequency: gastrointestinal, hematologic, cardiovascular, renal, psychiatric, skin, miscellaneous
ALS subjects = details: daily dosages between 9 and 21 grams, 20 weeks
[2] = tested on: G93A SOD1 mouse model of ALS; details: in vivo
rat = details: intrarectal instillation, 78 weeks
CYP 2D6 = CYP 2D6 (Homo sapiens, UniProt P10635); details: at 20 times the intended clinical concentration (Cmax)
CYP 1A2 = biological target: T1, CYP 1A2 (Homo sapiens, UniProt P05177); details: at 20 times the intended clinical concentration (Cmax)
T1 sequence (P05177 1-516): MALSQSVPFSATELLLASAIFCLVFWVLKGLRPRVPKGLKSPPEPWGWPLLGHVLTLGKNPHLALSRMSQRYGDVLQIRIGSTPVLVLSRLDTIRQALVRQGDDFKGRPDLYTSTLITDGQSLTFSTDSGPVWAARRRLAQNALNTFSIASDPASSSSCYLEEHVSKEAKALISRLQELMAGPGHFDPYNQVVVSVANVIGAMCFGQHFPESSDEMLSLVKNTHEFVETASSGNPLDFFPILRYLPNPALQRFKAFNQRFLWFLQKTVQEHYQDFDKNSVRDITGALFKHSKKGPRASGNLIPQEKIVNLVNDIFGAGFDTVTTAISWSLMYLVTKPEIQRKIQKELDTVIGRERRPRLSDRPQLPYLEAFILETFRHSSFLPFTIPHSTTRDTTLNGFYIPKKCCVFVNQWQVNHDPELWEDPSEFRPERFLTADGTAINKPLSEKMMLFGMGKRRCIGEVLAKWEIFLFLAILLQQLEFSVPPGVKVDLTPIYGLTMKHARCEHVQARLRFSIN

Sequence of CYP 2D6 (P10635 whole entry): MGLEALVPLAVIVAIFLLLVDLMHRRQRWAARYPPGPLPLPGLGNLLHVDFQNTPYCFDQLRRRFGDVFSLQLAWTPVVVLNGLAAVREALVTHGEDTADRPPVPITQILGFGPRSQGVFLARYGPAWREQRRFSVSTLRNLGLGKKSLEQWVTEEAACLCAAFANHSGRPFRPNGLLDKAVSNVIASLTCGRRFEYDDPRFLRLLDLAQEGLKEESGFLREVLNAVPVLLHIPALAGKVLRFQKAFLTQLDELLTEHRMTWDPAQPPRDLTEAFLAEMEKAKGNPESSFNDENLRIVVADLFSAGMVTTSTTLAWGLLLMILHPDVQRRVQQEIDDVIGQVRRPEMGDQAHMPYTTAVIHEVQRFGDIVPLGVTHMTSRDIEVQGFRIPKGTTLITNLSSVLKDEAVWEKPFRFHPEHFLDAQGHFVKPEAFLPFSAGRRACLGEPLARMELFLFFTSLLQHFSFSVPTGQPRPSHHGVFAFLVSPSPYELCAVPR

Compound: C[C@H](CCC(=O)NCCS(=O)(=O)O)[C@H]1CC[C@H]2[C@@H]3[C@@H](O)C[C@@H]4C[C@H](O)CC[C@]4(C)[C@H]3CC[C@]12C [TURSO, taurursodiol]
frequency of adverse reactions (abdominal discomfort, abdominal pain, diarrhea, nausea, pruritus, rash) (subjects): ≥ 1%
frequency of adverse reactions (abdominal discomfort, abdominal pain, diarrhea, nausea, pruritus, rash) (subjects; listed as TUDCA): > 1%

tumorigenicity (CD-1 mice): not tumorigenic
Compound: C[C@H](CCC(=O)O)[C@H]1CC[C@H]2[C@@H]3[C@@H](O)C[C@@H]4C[C@H](O)CC[C@]4(C)[C@H]3CC[C@]12C [Ursodeoxycholic acid]
tumorigenicity (Sprague-Dawley rats): statistically significant dose-related increased incidences of pheochromocytomas of adrenal medulla
association with liver damage (liver enzyme levels): has not been associated with liver damage

Compound: O=C(O)Cc1ccccc1 [phenylacetate, phenylacetic acid]
Neurotoxicity (cancer subjects): Neurotoxicity was reported

Compound: O=C(O)CCCc1ccccc1 [phenylbutyrate, sodium phenylbutyrate]
Decreased appetite ([1]; all subjects): 4%
Other (rare) adverse events, frequency [1]: ≤ 2%
Other (rare) adverse events, frequency ([1]; listed as PB): < 2%
Body odor ([1]; human, in vivo): 3%
bad taste or taste aversion ([1]; human, in vivo): 3%
amenorrhea/menstrual dysfunction (irregular menstrual cycles) ([1]; menstruating subjects): 23%
safety and tolerability (ALS subjects): generally safe and tolerable
survival [2]: increase survival

tumor production, bile acid alone (rat): did not produce any tumors
Compound: C[C@H](CCC(=O)NCCS(=O)(=O)O)[C@H]1CC[C@H]2[C@@H]3CC[C@@H]4C[C@H](O)CC[C@]4(C)[C@H]3C[C@H](O)[C@]12C [tauro-deoxycholic acid]
effect when co-administered with a carcinogenic agent (rat): tumor-promoting effect

Compound: Phenylacetylacetate
inhibition of CYP 2D6 (CYP 2D6): inhibitory
inhibition of CYP 1A2 (CYP 1A2): inhibitory
